Data published in article PMC4890124, “Antimicrobial activity, improved cell selectivity and mode of action of short PMAP-36-derived peptides against bacteria and Candida” (Scientific Reports, 2016).
Values after ≈ are worked out from the molar mass of the structure shown. Peptide text beside a SMILES is read from it.

How the values were obtained:
[1] = test system: Bacillus subtilis CMCC 63501; type: cell-based; conditions: CMCC 63501, 18 h
Procedure: (§1) The peptide antibacterial activity was determined against both gram-positive and gram-negative bacteria strains, including Escherichia coli ATCC 25922, Escherichia coli UB1005, Salmonella enterica serovar typhimurium C77-31, Staphylococcus aureus ATCC 29213, Staphylococcus aureus ATCC 25923, Bacillus subtilis CMCC 63501, and Staphylococcus epidermidis ATCC 12228. Clinically isolated Escherichia coli EC183 was provided by the 4th Affiliated Hospital of Harbin Medical University. MIC of the peptides was measured using a modified version of the National Committee for Clinical Laboratory Standards (NCCLS) broth microdilution method as described previously. The bacterial strains were inoculated and grown to mid-log phase in fresh Mueller-Hinton broth (MHB) at 37 °C. Bacterial inoculum suspensions were prepared at a final concentration of approximately 1 × 10^5 CFU/ml. Peptides were 2-fold serially diluted to make different concentrations, from 0.5 to 256 μM. Equal volumes of inoculum suspensions were then added to each well of a sterile 96-well plate with different concentrations of peptides, and the plate was incubated for 18 h at 37 °C. Broth with or without bacteria was employed as the positive control or the negative control, respectively. MIC was defined as the lowest concentration of peptides that prevented visible turbidity by visual inspection. […] After overnight incubation at 37 °C, MBC was defined as the lowest concentration of peptides that killed at least 99.9% of the initial inoculums. Experiments were performed in triplicate with three biological replicates.

[2] = test system: Clinically isolated Escherichia coli EC183; type: cell-based; conditions: Clinically isolated EC183, 18 h
Procedure: as §1

[3] = test system: Escherichia coli ATCC 25922; type: cell-based; conditions: ATCC 25922, 18 h
Procedure: as §1

Escherichia coli UB1005 = type: cell-based; conditions: UB1005, 18 h
Procedure: as §1

[4] = test system: Salmonella enterica serovar typhimurium C77-31; type: cell-based; conditions: three independent experiments
Procedure: as §1

[5] = test system: Staphylococcus aureus ATCC 25923; type: cell-based; conditions: ATCC 25923, 18 h
Procedure: as §1

[6] = test system: Staphylococcus aureus ATCC 29213; type: cell-based; conditions: ATCC 29213, 18 h
Procedure: as §1

[7] = test system: Staphylococcus epidermidis ATCC 12228; type: cell-based; conditions: ATCC 12228, 18 h
Procedure: as §1

[8] = test system: Candida albicans CGMCC 2.2086; test: microbe, parasite or virus in culture; type: cell-based; conditions: CGMCC 2.2086, 48 h
Excerpt: (§2) The antifungal activities were monitored in RPMI-1640 broth medium by a 2-fold microdilution assay according to the Clinical and Laboratory Standards Institute (CLSI) methods. The Candida albicans CGMCC 2.2086, Candida tropicalis CGMCC 2.1975, and Candida krusei CGMCC 2.1857 fungal strains were purchased from the China General Microbiological Culture Collection Center (CGMCC, Beijing, China). Clinically isolated Candida albicans CA2761 was provided by the 4th Affiliated Hospital of Harbin Medical University. Briefly, fungal strains were cultured on YPD agar plates (1% peptone, 0.5% yeast extract, 1% glucose and 2% agar) at 28 °C to prepare Candida suspensions with a turbidity of a 0.5 McFarland standard. A total of 50 μl inoculum cell suspension diluted in RPMI-1640 broth medium was added to an equal volume of peptide solution to achieve a final peptide concentrations ranging from 0.25 μM to 128 μM in a 96-well plate. Pure broth alone or with inoculum suspensions was used as the negative control or the positive control, respectively. The plate was incubated at 28 °C for 48 h. MIC was considered the lowest concentration at which no fungal growth was visually observed under experimental conditions. […] After 48 h incubation at 28 °C, MFC was defined as the lowest concentration of peptides that killed at least 99.9% of the initial inoculums. Experiments were performed in triplicate with three biological replicates.

[9] = test system: Candida krusei CGMCC 2.1857; test: microbe, parasite or virus in culture; type: cell-based; conditions: CGMCC 2.1857, 48 h
Excerpt: as §2

[10] = test system: Candida tropicalis CGMCC 2.1975; test: microbe, parasite or virus in culture; type: cell-based; conditions: CGMCC 2.1975, 48 h
Excerpt: as §2

[11] = test system: C. albicans CA276 (clinical isolate); test: microbe, parasite or virus in culture; type: cell-based, Candida albicans; conditions: CA276 (clinical isolate, 48 h)
Excerpt: as §2

## CC[C@H](C)[C@H](NC(=O)[C@H](Cc1c[nH]c2ccccc12)NC(=O)[C@H](CCCCN)NC(=O)[C@H](CC(C)C)NC(=O)[C@@H](NC(=O)[C@H](CCCCN)NC(=O)CNC(=O)[C@@H](NC(=O)[C@H](CCCCN)NC(=O)[C@H](CCCCN)NC(=O)[C@H](CC(C)C)NC(=O)[C@H](CCCNC(=N)N)NC(=O)[C@H](CCCCN)NC(=O)[C@H](CCCNC(=N)N)NC(=O)[C@@H](NC(=O)[C@H](CCCCN)NC(=O)[C@H](CCCCN)NC(=O)[C@H](CCCNC(=N)N)NC(=O)[C@H](CC(C)C)NC(=O)[C@H](CCCNC(=N)N)NC(=O)[C@@H](N)CCCNC(=N)N)[C@@H](C)O)[C@@H](C)CC)C(C)C)C(N)=O [RI21] (H-RRLRKKTRKRLKKIGKVLKWI-NH2)
[1]
  MBC B. subtilis 63501: 4 µM (≈ 10.8 µg/mL)
  MIC B. subtilis 63501: 1 µM (≈ 2.7 µg/mL)
[2]
  MBC E. coli EC183: 2 µM (≈ 5.41 µg/mL)
  MIC E. coli EC183: 1 µM (≈ 2.7 µg/mL)
[3]
  MBC E. coli 25922: 8 µM (≈ 21.6 µg/mL)
  MIC E. coli 25922: 2 µM (≈ 5.41 µg/mL)
Escherichia coli UB1005
  MBC E. coli 1005: 2 µM (≈ 5.41 µg/mL)
  MIC E. coli 1005: 2 µM (≈ 5.41 µg/mL)
[4]; broth microdilution, MHB, ~1 × 10^5 CFU/ml, 18 h at 37 °C, visual
  MIC S. typhi C77-31: 1 µM (≈ 2.7 µg/mL)
[4]; lowest concentration killing at least 99.9% of initial inoculum
  MBC S. typhi C77-31: 2 µM (≈ 5.41 µg/mL)
[5]
  MBC S. aureus 25923: 4 µM (≈ 10.8 µg/mL)
  MIC S. aureus 25923: 4 µM (≈ 10.8 µg/mL)
[6]
  MBC S. aureus 29213: 4 µM (≈ 10.8 µg/mL)
  MIC S. aureus 29213: 4 µM (≈ 10.8 µg/mL)
[7]
  MBC S. epidermidis 12228: 8 µM (≈ 21.6 µg/mL)
  MIC S. epidermidis 12228: 4 µM (≈ 10.8 µg/mL)
[8]; read-out: MFC C. albicans 2.2086
  MFC: 16 µM (≈ 43.3 µg/mL)
[8]; read-out: MIC C. albicans 2.2086
  MIC: 8 µM (≈ 21.6 µg/mL)
[9]; read-out: MFC C. krusei 2.1857
  MFC: 4 µM (≈ 10.8 µg/mL)
[9]; read-out: MIC C. krusei 2.1857
  MIC: 2 µM (≈ 5.41 µg/mL)
[10]; read-out: MFC C. tropicalis 2.1975
  MFC: 2 µM (≈ 5.41 µg/mL)
[10]; read-out: MIC C. tropicalis 2.1975
  MIC: 1 µM (≈ 2.7 µg/mL)
[11]
  MFC: 32 µM (≈ 86.5 µg/mL)
  MIC: 8 µM (≈ 21.6 µg/mL)
